Values joined by “and” are separate entries in the source; they are usually repeats but may differ in a detail not shown here. Equal values may be shown once. HELM strings list units from the 5' end as sugar, base in round brackets, then linkage (d deoxyribose, r ribose, m 2'-O-methyl, p phosphodiester). Strings are as the collection lists them, not checked against the first reports. ss, as = sense and antisense strand; [lna] = locked nucleic acid (LNA); [una] = unlocked nucleic acid; [s4r] = 4'-thioribose; [fl2r] = 2'-fluoro
Conditions: siRNA
Further: test system not given here.

RNA1{[fl2r](C)p.r(U)p.[fl2r](A)p.r(G)p.[fl2r](A)p.r(G)p.[fl2r](G)p.r(A)p.[fl2r](U)p.r(C)p.[fl2r](U)p.r(U)p.[fl2r](G)p.r(A)p.[fl2r](A)p.r(G)p.[fl2r](A)p.r(C)p.[fl2r](C)p.r(T)p.r(T)}|RNA2{[fl2r](G)p.[fl2r](G)p.r(U)p.r(C)p.r(U)p.r(U)p.r(C)p.r(A)p.r(A)p.[fl2r](G)p.r(A)p.r(U)p.r(C)p.r(C)p.r(U)p.r(C)p.r(U)p.r(A)p.[fl2r](G)p.r(T)p.r(T)}$$$RNA1{StrandType:ss}|RNA2{StrandType:as}$
target mRNA knockdown: 38%

RNA1{m(A)p.r(A)p.m(C)p.r(U)p.m(U)p.r(C)p.m(U)p.r(G)p.m(G)p.r(G)p.m(A)p.r(G)p.m(C)p.r(C)p.m(U)p.r(C)p.m(C)p.r(A)p.m(A)p.r(T)p.r(T)}|RNA2{r(U)p.r(U)p.r(G)p.r(G)p.m(A)p.r(G)p.r(G)p.r(C)p.r(U)p.r(C)p.r(C)p.r(C)p.m(A)p.r(G)p.m(A)p.m(A)p.r(G)p.r(U)p.r(U)p.r(T)p.r(T)}$$$RNA1{StrandType:ss}|RNA2{StrandType:as}$
target mRNA knockdown: 42%

RNA1{r(G)p.r(A)p.r(U)p.r(U)p.r(C)p.r(C)p.r(A)p.r(A)p.r(A)p.r(C)p.r(C)p.r(C)p.r(C)p.r(A)p.r(C)p.m(U)p.r(A)p.r(U)p.r(C)p.r(T)p.r(T)}|RNA2{r(G)p.r(A)p.r(U)p.m(A)p.r(G)p.r(U)p.r(G)p.r(G)p.r(G)p.r(G)p.r(U)p.r(U)p.r(U)p.r(G)p.r(G)p.r(A)p.r(A)p.r(U)p.r(C)p.r(T)p.r(T)}$$$RNA1{StrandType:ss}|RNA2{StrandType:as}$
target mRNA knockdown: 69%

RNA1{[s4r](C)p.[s4r](G)p.[s4r](U)p.[s4r](A)p.[s4r](C)p.[s4r](G)p.r(C)p.r(G)p.r(G)p.r(A)p.r(A)p.r(U)p.r(A)p.[s4r](C)p.[s4r](U)p.[s4r](U)p.[s4r](C)p.[s4r](G)p.[s4r](A)p.r(T)p.r(T)}|RNA2{[s4r](U)p.[s4r](C)p.[s4r](G)p.[s4r](A)p.[s4r](A)p.[s4r](G)p.r(U)p.r(A)p.r(U)p.r(U)p.r(C)p.r(C)p.r(G)p.[s4r](C)p.[s4r](G)p.[s4r](U)p.[s4r](A)p.[s4r](C)p.[s4r](G)p.r(T)p.r(T)}$$$RNA1{StrandType:ss}|RNA2{StrandType:as}$
target mRNA knockdown: 0%

RNA1{[fl2r](U)p.r(C)p.[fl2r](C)p.r(U)p.[fl2r](C)p.r(G)p.[fl2r](U)p.r(C)p.[fl2r](G)p.r(U)p.[fl2r](C)p.r(U)p.[fl2r](G)p.r(U)p.[fl2r](U)p.r(C)p.[fl2r](U)p.r(A)p.[fl2r](A)p.r(T)p.r(T)}|RNA2{r(U)p.r(U)p.r(A)p.r(G)p.r(A)p.r(A)p.[fl2r](C)p.r(A)p.r(G)p.r(A)p.[fl2r](C)p.r(G)p.r(A)p.[fl2r](C)p.r(G)p.r(A)p.r(G)p.r(G)p.r(A)p.r(T)p.r(T)}$$$RNA1{StrandType:ss}|RNA2{StrandType:as}$
target mRNA knockdown: 49%

RNA1{r(U)p.r(U)p.r(U)p.r(C)p.r(C)p.r(C)p.r(C)p.r(C)p.[fl2r](A)p.[fl2r](G)p.[fl2r](G)p.r(U)p.[fl2r](A)p.[fl2r](A)p.[fl2r](C)p.[fl2r](G)p.r(A)p.r(U)p.r(U)p.r(T)p.r(T)}|RNA2{r(A)p.r(A)p.r(U)p.r(C)p.r(G)p.r(U)p.r(U)p.r(A)p.r(C)p.r(C)p.r(U)p.r(G)p.r(G)p.r(G)p.r(G)p.r(G)p.r(A)p.r(A)p.r(A)p.r(T)p.r(T)}$$$RNA1{StrandType:ss}|RNA2{StrandType:as}$
target mRNA knockdown: 78%

RNA1{r(C)p.m(U)p.r(A)p.r(G)p.r(U)p.r(C)p.r(G)p.r(A)p.r(A)p.r(A)p.r(G)p.r(A)p.r(A)p.r(A)p.r(A)p.r(C)p.r(G)p.r(G)p.r(G)p.r(T)p.r(T)}|RNA2{r(C)p.r(C)p.r(C)p.r(G)p.r(U)p.r(U)p.r(U)p.r(U)p.r(C)p.r(U)p.r(U)p.r(U)p.r(C)p.r(G)p.r(A)p.r(C)p.m(U)p.r(A)p.r(G)p.r(T)p.r(T)}$$$RNA1{StrandType:ss}|RNA2{StrandType:as}$
target mRNA knockdown: 56%

RNA1{r(G)p.r(U)p.r(A)p.r(U)p.r(G)p.r(A)p.r(C)p.r(C)p.r(G)p.r(A)p.r(C)p.r(U)p.r(A)p.r(C)p.r(G)p.r(C)p.r(G)p.r(U)p.r(A)p.r(T)p.r(T)}|RNA2{r(U)p.r(U)p.r(C)p.r(A)p.r(G)p.r(U)p.r(G)p.r(U)p.r(G)p.[una](A)p.r(U)p.r(G)p.r(A)p.r(C)p.r(A)p.r(C)p.r(U)p.r(U)p.r(G)p.r(T)p.r(T)}$$$RNA1{StrandType:ss}|RNA2{StrandType:as}$
target mRNA knockdown: 23%

RNA1{r(U)p.r(C)p.r(C)p.r(G)p.r(G)p.r(C)p.[fl2r](U)p.r(A)p.r(A)p.r(C)p.r(U)p.r(C)p.r(U)p.r(G)p.r(A)p.r(G)p.r(G)p.r(A)p.r(C)p.r(T)p.r(T)}|RNA2{r(G)p.r(U)p.r(C)p.r(C)p.r(U)p.r(C)p.r(A)p.r(G)p.r(A)p.r(G)p.r(U)p.[fl2r](U)p.r(A)p.r(G)p.r(C)p.r(C)p.r(G)p.r(G)p.r(A)p.r(T)p.r(T)}$$$RNA1{StrandType:ss}|RNA2{StrandType:as}$
target mRNA knockdown: 82%

RNA1{r(A)p.r(G)p.r(C)p.r(G)p.r(G)p.r(G)p.r(G)p.m(U)p.r(A)p.r(U)p.r(G)p.r(A)p.r(A)p.r(G)p.r(A)p.r(G)p.r(C)p.r(U)p.r(U)p.r(T)p.r(T)}|RNA2{r(A)p.r(A)p.r(G)p.r(C)p.r(U)p.r(C)p.r(U)p.r(U)p.r(C)p.r(A)p.m(U)p.r(A)p.r(C)p.r(C)p.r(C)p.r(C)p.r(G)p.r(C)p.r(U)p.r(T)p.r(T)}$$$RNA1{StrandType:ss}|RNA2{StrandType:as}$
target mRNA knockdown: 82%

RNA1{[s4r](C)p.[s4r](G)p.[s4r](U)p.[s4r](A)p.r(C)p.r(G)p.r(C)p.r(G)p.r(G)p.r(A)p.r(A)p.r(U)p.r(A)p.r(C)p.r(U)p.[s4r](U)p.[s4r](C)p.[s4r](G)p.[s4r](A)p.r(T)p.r(T)}|RNA2{r(U)p.r(C)p.r(G)p.r(A)p.r(A)p.r(G)p.r(U)p.r(A)p.r(U)p.r(U)p.r(C)p.r(C)p.r(G)p.r(C)p.r(G)p.r(U)p.r(A)p.r(C)p.r(G)p.r(T)p.r(T)}$$$RNA1{StrandType:ss}|RNA2{StrandType:as}$
target mRNA knockdown: 94.7%

RNA1{r(G)p.r(G)p.r(G)p.r(A)p.r(G)p.r(G)p.r(A)p.r(U)p.r(G)p.r(A)p.r(C)p.r(A)p.r(A)p.r(A)p.r(G)p.r(A)p.r(A)p.r(G)p.r(C)p.r(T)p.r(T)}|RNA2{r(G)p.[fl2r](C)p.r(U)p.r(U)p.[fl2r](C)p.r(U)p.r(U)p.r(U)p.r(G)p.r(U)p.[fl2r](C)p.r(A)p.r(U)p.[fl2r](C)p.[fl2r](C)p.r(U)p.[fl2r](C)p.[fl2r](C)p.[fl2r](C)p.r(T)p.r(T)}$$$RNA1{StrandType:ss}|RNA2{StrandType:as}$
target mRNA knockdown: 37%

RNA1{[lna](G)p.r(G)p.r(A)p.r(U)p.r(G)p.r(A)p.r(G)p.r(G)p.r(A)p.r(A)p.r(G)p.r(G)p.r(C)p.r(A)p.r(A)p.r(U)p.r(U)p.r(U)p.r(A)p.[lna](T)p.[lna](T)}|RNA2{r(U)p.r(A)p.r(A)p.r(A)p.r(U)p.r(U)p.r(G)p.r(C)p.r(C)p.r(U)p.r(U)p.r(C)p.r(C)p.r(U)p.r(C)p.r(A)p.r(U)p.r(C)p.r(C)p.[lna](T)p.[lna](T)}$$$RNA1{StrandType:ss}|RNA2{StrandType:as}$
target mRNA knockdown: 50%

RNA1{m(A)p.r(A)p.m(A)p.r(C)p.m(C)p.r(C)p.m(C)p.r(U)p.m(A)p.r(G)p.m(A)p.r(G)p.m(G)p.r(G)p.m(C)p.r(A)p.m(A)p.r(G)p.m(U)p.r(T)p.r(T)}|RNA2{r(A)p.r(C)p.r(U)p.r(U)p.r(G)p.r(C)p.r(C)p.r(C)p.r(U)p.r(C)p.r(U)p.r(A)p.r(G)p.r(G)p.r(G)p.r(G)p.r(U)p.r(U)p.r(U)p.r(T)p.r(T)}$$$RNA1{StrandType:ss}|RNA2{StrandType:as}$
target mRNA knockdown: 62%

RNA1{m(G)p.r(C)p.m(A)p.r(A)p.m(G)p.r(U)p.m(G)p.r(G)p.m(C)p.r(A)p.m(A)p.r(G)p.m(A)p.r(G)p.m(G)p.r(A)p.m(U)p.r(U)p.r(A)p.r(T)p.r(T)}|RNA2{r(U)p.r(A)p.r(A)p.r(U)p.r(C)p.r(C)p.r(U)p.r(C)p.r(U)p.r(U)p.r(G)p.r(C)p.r(C)p.r(A)p.r(C)p.r(U)p.r(U)p.r(G)p.r(C)p.r(T)p.r(T)}$$$RNA1{StrandType:ss}|RNA2{StrandType:as}$
target mRNA knockdown: 55%

RNA1{r(A)p.r(G)p.r(C)p.r(C)p.r(C)p.r(A)p.r(G)p.r(A)p.[fl2r](U)p.r(A)p.r(G)p.r(C)p.r(U)p.r(C)p.r(U)p.r(U)p.r(C)p.r(A)p.r(G)p.r(T)p.r(T)}|RNA2{r(C)p.r(U)p.r(G)p.r(A)p.r(A)p.r(G)p.r(A)p.r(G)p.r(C)p.[fl2r](U)p.r(A)p.r(U)p.r(C)p.r(U)p.r(G)p.r(G)p.r(G)p.r(C)p.r(U)p.r(T)p.r(T)}$$$RNA1{StrandType:ss}|RNA2{StrandType:as}$
target mRNA knockdown: 69%

RNA1{r(G)p.r(G)p.r(G)p.r(A)p.r(G)p.r(G)p.r(A)p.[fl2r](U)p.[fl2r](G)p.r(A)p.[fl2r](C)p.r(A)p.r(A)p.r(A)p.r(G)p.r(A)p.r(A)p.r(G)p.r(C)p.r(T)p.r(T)}|RNA2{r(G)p.r(C)p.r(U)p.r(U)p.r(C)p.r(U)p.r(U)p.[fl2r](U)p.r(G)p.r(U)p.[fl2r](C)p.r(A)p.r(U)p.r(C)p.r(C)p.r(U)p.r(C)p.r(C)p.r(C)p.r(T)p.r(T)}$$$RNA1{StrandType:ss}|RNA2{StrandType:as}$
target mRNA knockdown: 78%

RNA1{r(A)p.r(G)p.r(C)p.m(C)p.r(A)p.r(C)p.r(A)p.r(U)p.r(U)p.r(U)p.r(C)p.r(U)p.m(A)p.r(G)p.r(G)p.r(A)p.r(G)p.r(A)p.r(U)p.r(T)p.r(T)}|RNA2{r(A)p.r(U)p.r(C)p.r(U)p.r(C)p.r(C)p.r(U)p.r(A)p.r(G)p.r(A)p.r(A)p.r(A)p.m(U)p.r(G)p.r(U)p.r(G)p.r(G)p.r(C)p.r(U)p.r(T)p.r(T)}$$$RNA1{StrandType:ss}|RNA2{StrandType:as}$
target mRNA knockdown: 29%

RNA1{[una](A)p.r(C)p.r(A)p.r(G)p.r(A)p.r(G)p.r(U)p.r(C)p.r(C)p.r(C)p.r(U)p.r(C)p.r(A)p.r(A)p.r(A)p.r(C)p.r(A)p.r(G)p.r(A)p.[una](U)p.[una](U)}|RNA2{r(U)p.r(C)p.r(U)p.r(G)p.r(U)p.r(U)p.r(U)p.r(G)p.r(A)p.r(G)p.r(G)p.r(G)p.r(A)p.r(C)p.r(U)p.r(C)p.r(U)p.r(G)p.r(U)p.[una](U)p.[una](U)}$$$RNA1{StrandType:ss}|RNA2{StrandType:as}$
target mRNA knockdown: 94% and 92% and 91%

Reference: the OligoGym collection
